These results are taken from patent US5344959A, “Tetrahydronaphthyl and cyclopropyl substituted 1,3-butadienes having retinoid-like activity” (Allergan, Inc., priority 1993, dated 1994).

The first assay relates to ornithine decarboxylase (ODC). As to the kind of experiment: inhibition of TPA induction of ornithine decarboxylase (ODC). Type of assay: in vivo. Particulars: inhibition of TPA-induced ODC activity; Table 1. The text has this:
The retinoid-like activity of these compounds is confirmed through the classic measure of retinoic acid activity involving the effects of retinoic acid on ornithine decarboxylase. The original work on the correlation-between retinoic acid and decrease in cell proliferation was done by Verma & Boutwell, Cancer Research, 1977, 37,2196-2201. That reference discloses that ornithine decarboxylase (ODC) activity increased precedent to polyamine biosynthesis. It has been established elsewhere that increases in polyamine synthesis can be correlated or associated with cellular proliferation. Thus, if ODC activity could be inhibited, cell hyperproliferation could be modulated. Although all causes for ODC activity increases are unknown, it is known that 12-0-tetradecanoylphorbol-13-acetate (TPA) induces ODC activity. Retinoic acid inhibits this induction of ODC activity by TPA.
Consider `C/C(=C\C=C\[C@H]1C[C@H]1C(=O)O)c1ccc2c(c1)C(C)(C)CCC2(C)C` (relative stereo) [Compound 4, Cis-2-[4-methyl-4-(5,5,8,8,-tetramethyl-5,6,7,8-tetrahydro-2-naphthyl)-(E),(E) 1-3-butadienyl]-1-cyclopropane carboxylic acid], for which it took 35 nM to reach the 80% level (IC80). Same read-out and setting: the value for `CCOC(=O)[C@@H]1C[C@H]1/C=C/C=C(\C)c1ccc2c(c1)C(C)(C)CCC2(C)C` (relative stereo) [Compound 2, Ethyl trans 2-[4-methyl-4(5,6,7,8-tetrahyro-5,5,8,8-tetramethyl-2-naphthyl)E,E 1-3 butadienyl] 1-cyclopropane carboxylate] was 2.1 nM. Compound `C/C(=C\C=C\[C@@H]1C[C@H]1C(=O)O)c1ccc2c(c1)C(C)(C)CCC2(C)C` (relative stereo) [Compound 3, Trans-2-[4-methyl-4-(5,5,8,8,-tetramethyl-5,6,7,8-tetrahydro-2-naphthyl)-(E),(E) 1-3-butadienyl]-1-cyclopropane carboxylic acid] came in with a concentration for an effect of 80% (IC80) of 2.6 nM. This IC80 and that of the compound before are within 1.5-fold of each other. `C/C(=C\C=C\[C@H]1C[C@H]1C(=O)O)c1cc2c(cc1C)C(C)(C)CCC2(C)C` (relative stereo) [Compound 6, Cis-2-[4-methyl-4-(3,5,5,8,8,-pentamethyl-5,6,7,8-tetrahydro-2-naphthyl)-(E),(E) 1-3-butadienyl]-1-cyclopropane carboxylic acid] displayed a concentration for an effect of 80% (IC80) of 638 nM. The compound `CCOC(=O)[C@@H]1C[C@H]1/C=C/C=C(\C)c1cc2c(cc1C)C(C)(C)CCC2(C)C` (relative stereo) [Compound 7, Ethyl trans-2-[4-methyl-4-(3,5,5,8,8,-pentamethyl-5,6,7,8-tetrahydro-2-naphthyl)-(E),(E) 1-3-butadienyl]-1-cyclopropane carboxylate] returned an IC80 of 250 nM. On the same count and under the same terms, the value for `CCOC(=O)[C@@H]1C[C@@H]1/C=C/C=C(\C)c1cc2c(cc1C)C(C)(C)CCC2(C)C` (relative stereo) [Compound 5, Ethyl cis-2-[4-methyl-4-(3,5,5,8,8,-pentamethyl-5,6,7,8-tetrahydro-2-naphthyl)-(E),(E) 1-3-butadienyl]-1-cyclopropane carboxylate] was more than 300 nM; that for `CCOC(=O)[C@@H]1C[C@@H]1/C=C/C=C(\C)c1ccc2c(c1)C(C)(C)CCC2(C)C` (relative stereo) [Compound 1, Ethyl cis-2-[4-methyl-4-(5,5,8,8,-tetramethyl-5,6,7,8-tetrahydro-2-naphthyl)-(E),(E) 1-3-butadienyl]-1-cyclopropane carboxylate] was 8.3 nM.

In another assay the test system is ornithine decarboxylase (ODC).
Assay: not given
Particulars: general statement, known; cited from earlier work.
Consider `CCCCCCCCCCCCCC(=O)O[C@@H]1[C@@H](C)[C@@]2(O)[C@@H](C=C(CO)C[C@]3(O)C(=O)C(C)=C[C@@H]23)[C@@H]2C(C)(C)[C@]12OC(C)=O` [12-0-tetradecanoylphorbol-13-acetate], for which the “induction of ODC activity” value is given as “induces”.

The same assay, now with this note: general statement, literature; cited from earlier work.
In the case of `CC1=C(/C=C/C(C)=C/C=C/C(C)=C/C(=O)O)C(C)(C)CCC1` [Retinoic acid], the “inhibition of induction of ODC activity by TPA” value was “inhibits”.

The IC80 is the concentration at which the effect reaches the 80% level. The low end stands for an effect from little substance, the high end for a need for much substance.
